Key:
[1] = system: memory deficits after icv injections of STZ; details: chronic treatment; cited from earlier work
MAO-A = assay: In vivo MAO inhibition assay (MAO-A); set-up: species or system Rats and mice
Procedure: (§1) The level of MAO (MAO-A and MAO-B) inhibition can be determined by routine methods, including those detailed below.
(§2) Rats and mice are treated by subcutaneous (s.c.) or intraperitoneal (i.p.) injection or oral (p.o.) administration of the compound to be tested. Animals are decapitated approximately 2 hours after drug treatment and MAO activity is determined in the brain, intestine, and/or liver. MAO activity is expressed as percentage of enzyme activity relative to a control group administered with vehicle only. Effective doses producing 50% MAO inhibition (ED50 values) are calculated from inhibition curves.
(§3) Repeated treatment by ladostigil (e.g. daily doses for 7 days) can be used to calculate inhibition achieved through chronic administration.

MAO-B = assay: In vivo MAO inhibition assay (MAO-B); set-up: species or system Rats and mice
Procedure: as §1, §2, §3

ChE = assay: In vivo ChE inhibition assay; set-up: species or system cynomolgus monkeys; details: acute or chronic administration, amounts up to 7.0 mg/kg ladostigil base
Procedure: The level of ChE inhibition can be determined by routine methods, including those detailed below.
In vivo measurement of ChE inhibition is similar to that of in vivo measurement of MAO inhibition, except that cynomolgus monkeys are treated, and tissues are examined for brain, plasma and erythrocytes ChE inhibition.

[2] = system: rats injected icv with Aβ(1-40); details: cited from earlier work
[3] = acute administration, amounts up to 20.4 mg/kg of ladostigil base
[4] = chronic administration, amounts up to 4.5 mg/kg of ladostigil base

For `COc1ccc2[nH]cc(CCNC(C)=O)c2c1` [melatonin], the “Memory deficits 3-8 weeks after icv STZ” value [1] is listed as “can be reduced”.
With “R(+)-6-(N-methyl,N-ethyl-carbamoyloxy)-N′-propargyl-1-aminoindan [ladostigil tartrate]” the “MAO inhibition (MAO-A)” value (MAO-A; [3]) was “no more than 25%”, the “MAO inhibition (MAO-A)” value (MAO-A; [4]) was “no more than 25%” and the “MAO inhibition (MAO-B)” value (MAO-B; [3]) was “no more than 25%”. The “MAO inhibition (MAO-B)” value (MAO-B; [4]) was “no more than 25%” and the ChE inhibition (ChE) was “no more than 30%”.
For `Oc1ccc(C=Cc2cc(O)cc(O)c2)cc1` [resveratrol], the “Memory deficits 3-8 weeks after icv STZ” value [1] is listed as “can be reduced”.
For `CC12CC3CC(C)(C1)CC(N)(C3)C2` [memantine], the “Activation of microglia and astrocytes and memory deficits after icv Aβ(1-40)” value [2] is given as “reduced the activation of microglia and astrocytes and the memory deficits”.

Source: patent publication US8420696B2, “Use of low-dose ladostigil for neuroprotection” (priority 2005, dated 2013)
